Key:
Nrf2 = experiment: Antioxidant Responsive Element (ARE) luciferase assay; type: cell-based, human; details: 24 h, AREc 32 (MCF7) cells
Text: The pGL-8×ARE which contains eight copies of the ARE present in rat glutathione-S-transferase A2 (GSTA2) along with the pcDNA3.1 plasmid containing the neomycin selectable marker was stably transfected into human MCF7 cells (Wang et al., Cancer Res. 66, 10983-10994, 2006). ARE (antioxidant-responsive element) is the binding site of the transcription factor Nrf2 which regulates the genes involved in detoxification and endogenous defence against oxidative stress. The plasmid pGL-8×ARE contains a luciferase gene downstream of the eight Nrf2 binding sites that allows monitoring Nrf2 activity. The AREc 32 cells were seeded in 96-well microtiter plates in DMEM growth medium. After treatment with 4-vinylcatechol for 24 h firefly luciferase activity was determined.

[1] = test system: PGE2 production in HT-29 cells; experiment: Prostaglandin E2 formation assay; type: cell-based, human; details: 15 h then 6 h with TNF-α 10 ng/ml
Description: Human colon HT-29 cells were treated with 4-vinylcatechol for 15 h followed by a co-incubation of 6 h together with a pro-inflammatory agent TNF-α (10 ng/ml). Analysis of the PGE2 production in HT-29 cells was determined using a competitive enzyme immunoassay (EIA) (Cavin et al., BBRC 327, 742-49, 2005).

`C=Cc1ccc(O)c(O)c1` [4-vinylcatechol] was tested, and the “firefly luciferase activity (induction of Nrf2 activity)” value (from here on “firefly luciferase activity”) (Nrf2; 4-vinylcatechol 200 μg/ml) was 16 AU, the “firefly luciferase activity” value (Nrf2; 4-vinylcatechol 400 μg/ml) was 41 AU and the “firefly luciferase activity” value (Nrf2; 4-vinylcatechol 600 μg/ml) was 22 AU. The PGE2 formation ([1]; 4-vinylcatechol 3.13 μg/ml) was 58 % of control, the PGE2 formation ([1]; 4-vinylcatechol 6.25 μg/ml) was 46 % of control and the PGE2 formation ([1]; 4-vinylcatechol 9.38 μg/ml) was 21 % of control. For the same compound, the PGE2 formation ([1]; 4-vinylcatechol 15.63 μg/ml) was 12 % of control, the PGE2 formation ([1]; 4-vinylcatechol 31.25 μg/ml) was 5 % of control and the PGE2 formation ([1]; 4-vinylcatechol 62.5 μg/ml) was 2 % of control.

— patent US20110046235A1, “PRODUCTS COMPRISING, AND USES OF, DECARBOXYLATED PHENOLIC ACIDS DERIVED FROM CHLOROGENIC ACIDS OF COFFEE” (NESTEC S.A., priority 2008, published 2011)
